Measurements: patent publication US20040198754A1, “Composition and method for appetite and craving suppression and mood enhancement” (Pro-Health, Inc., priority 2003, published 2004)

Assay: Individual human case reports of oral theobromine tablets (appetite, cravings, mood, energy, weight, side effects), with earlier use of commercial diet products
Assay type: in vivo
From the text: They lost 18 lbs., and did report having a headache. No other side effects were reported.
No other side effects were reported.
They lost 9 lbs. in 21 days.
They also took Metabolife 356® made by Metabolife International Inc. which contains a caffeine-ephedrine combination.
A person had been taking Xenadrine EFX (ephedrine free, contains synephrine) to try to stop smoking while losing weight, but with little effect on their appetite and nicotine craving. […] They discontinued use of theobromine over a weekend, and noted that the urge to smoke again became strong. […] They were also exercising, and despite quitting smoking at the same time, lost 4.5 pounds, and reported fitting into clothes that they hadn't been able to wear for several years.

[1] = person, 500 mg. theobromine 4 times per day for 21 days
[2] = person, 2 grams per day for 12 days
[3] = person, 3,250 mg. tablets per day for 10 days
[4] = person, 4, 250 mg. tablets four times per day for 21 days
[5] = person, up to 2 grams daily for 28 days
[6] = smoker, 750 mg. theobromine per day for three weeks

Cn1cnc2c1c(=O)[nH]c(=O)n2C [theobromine, 3,7-dimethylxanthine]
craving for sweets (self-reported) (person with lifelong cravings for sweets, one 250 mg. tablet per day): no craving for such sweets | appetite (self-reported) (person, 500 mg. of Theobromine): appetite suppression | energy (self-reported) (person, 500 mg. of Theobromine): good energy | mood (self-reported) (person, 500 mg. of Theobromine): sense of well being | appetite and food cravings (self-reported) [1]: reduced appetite and food cravings | energy (self-reported) [1]: increased energy without a stimulant high | weight lost [1]: 8 lbs. | weight lost (person, 750 mg. theobromine per day for three weeks, also exercising and quitting smoking): 4.5 pounds | appetite (self-reported) [2]: less appetite | energy, mood and thinking (self-reported) [2]: more energy, improved mood and clearer thinking | weight loss [2]: 5 pound | appetite (self-reported) [3]: reduced appetite | energy (self-reported) [3]: excellent energy | mood (self-reported) [3]: euphoric calmness to their mood | weight lost [3]: 8 lbs. | appetite (self-reported) [4]: reduced appetite | mood and energy (self-reported) [4]: elevated mood, more energy | weight lost [4]: 18 lbs. | appetite (self-reported) [5]: lowered appetite | energy or mood (self-reported) [5]: no energy or mood difference | weight lost (person, up to 2 grams daily, in 21 days): 9 lbs. | appetite (self-reported) [6]: reduced appetite | cravings for chocolate prior to menses (self-reported) [6]: reduction in cravings for chocolate | mood (self-reported) [6]: much calmer and less angry | urge to smoke (self-reported) [6]: loss of the urge to smoke
